Assay results reported in ChEMBL document CHEMBL3286225, “Novel carboline derivatives as potent antifungal lead compounds: design, synthesis, and biological evaluation” (ACS Med Chem Lett, 2014).
In brackets after ≈: the same amount, converted by molar mass.

What was measured:
Type in all cases: functional
Candida albicans = assay: Antifungal activity against fluconazole-sensitive Candida albicans SC5314 after 24 hrs by serial dilution method; conditions: SC5314, 24 h
Candida parapsilosis = assay: Antifungal activity against Candida parapsilosis ATCC 22019 after 24 hrs by serial dilution method; conditions: Lodderomyces parapsilosis, ATCC 22019, 24 h
Cryptococcus neoformans = assay: Antifungal activity against Cryptococcus neoformans 32609 after 72 hrs by serial dilution method; conditions: Cryptococcus neoformans, 32609, 72 h
Nakaseomyces glabratus = assay: Antifungal activity against Candida glabrata 537 after 24 hrs by serial dilution method; conditions: Nakaseomyces glabratus, 537, 24 h
Aspergillus fumigatus = assay: Antifungal activity against Aspergillus fumigatus 07544 after 7 days by serial dilution method; conditions: Aspergillus fumigatus, 07544, 168 h
Trichophyton rubrum = assay: Antifungal activity against Trichophyton rubrum Cmccftla after 7 days by serial dilution method; conditions: 168 h
Nannizzia gypsea = assay: Antifungal activity against Microsporum gypseum Cmccfmza after 7 days by serial dilution method; conditions: 168 h
Candida tropicalis = assay: Antifungal activity against Candida tropicalis after 7 days by serial dilution method; conditions: 168 h
Pichia kudriavzevii = assay: Antifungal activity against Candida krusei 0710397 after 7 days by serial dilution method; conditions: Pichia kudriavzevii, 0710397, 168 h

| MIC80 (Candida albicans) | MIC80 (Candida parapsilosis) | MIC80 (Cryptococcus neoformans) | MIC80 (Nakaseomyces glabratus) | MIC80 (Aspergillus fumigatus) | MIC80 (Trichophyton rubrum) | MIC80 (Nannizzia gypsea) | MIC80 (Candida tropicalis) | MIC80 (Pichia kudriavzevii) | SMILES |
| --- | --- | --- | --- | --- | --- | --- | --- | --- | --- |
| 16 µg/mL (≈ 43.2 µM) | 16 µg/mL (≈ 43.2 µM) | 16 µg/mL (≈ 43.2 µM) |  |  | 32 µg/mL (≈ 86.4 µM) | 8 µg/mL (≈ 21.6 µM) | 4 µg/mL (≈ 10.8 µM) | 4 µg/mL (≈ 10.8 µM) | Fc1ccc(OCCCCCn2c3c(c4cc(F)ccc42)CNCC3)cc1 |
| 32 µg/mL (≈ 83.1 µM) | 32 µg/mL (≈ 83.1 µM) | 8 µg/mL (≈ 20.8 µM) | > 64 µg/mL | 32 µg/mL (≈ 83.1 µM) | 8 µg/mL (≈ 20.8 µM) | 8 µg/mL (≈ 20.8 µM) |  |  | COc1ccc2c(c1)c1c(n2CCCOc2ccc(Cl)cc2)CCN(C)C1 |
| 16 µg/mL (≈ 40.1 µM) | 16 µg/mL (≈ 40.1 µM) | 16 µg/mL (≈ 40.1 µM) |  |  | 16 µg/mL (≈ 40.1 µM) | 16 µg/mL (≈ 40.1 µM) | 16 µg/mL (≈ 40.1 µM) | 4 µg/mL (≈ 10 µM) | Cc1ccc2c(c1)c1c(n2CCCOc2cccc(Br)c2)CCNC1 |
| > 64 µg/mL | > 64 µg/mL | 64 µg/mL (≈ 246 µM) | > 64 µg/mL | > 64 µg/mL | > 64 µg/mL | 64 µg/mL (≈ 246 µM) |  |  | CN1CCc2c(c3cc(Cl)ccc3n2CC#N)C1 |
| 4 µg/mL (≈ 11.8 µM) | 16 µg/mL (≈ 47.3 µM) | 4 µg/mL (≈ 11.8 µM) |  |  | 4 µg/mL (≈ 11.8 µM) | 4 µg/mL (≈ 11.8 µM) | 64 µg/mL (≈ 189 µM) | 16 µg/mL (≈ 47.3 µM) | Cc1ccccc1OCCCn1c2c(c3cc(F)ccc31)CNCC2 |
| 8 µg/mL (≈ 19.8 µM) | 64 µg/mL (≈ 159 µM) | 4 µg/mL (≈ 9.92 µM) |  |  | 8 µg/mL (≈ 19.8 µM) | 2 µg/mL (≈ 4.96 µM) | 16 µg/mL (≈ 39.7 µM) | 4 µg/mL (≈ 9.92 µM) | Fc1ccc2c(c1)c1c(n2CCCOc2ccc(Br)cc2)CCNC1 |
| 8 µg/mL (≈ 19.1 µM) | 16 µg/mL (≈ 38.1 µM) | 4 µg/mL (≈ 9.53 µM) |  |  | 16 µg/mL (≈ 38.1 µM) | 16 µg/mL (≈ 38.1 µM) | 16 µg/mL (≈ 38.1 µM) | 4 µg/mL (≈ 9.53 µM) | Clc1ccc2c(c1)c1c(n2CCCOc2cccc(Br)c2)CCNC1 |
| 4 µg/mL (≈ 11.8 µM) | 16 µg/mL (≈ 47.3 µM) | 16 µg/mL (≈ 47.3 µM) |  |  | 4 µg/mL (≈ 11.8 µM) | 4 µg/mL (≈ 11.8 µM) | 64 µg/mL (≈ 189 µM) | 16 µg/mL (≈ 47.3 µM) | Cc1ccc2c(c1)c1c(n2CCCOc2ccc(F)cc2)CCNC1 |
| 4 µg/mL (≈ 11.1 µM) | 64 µg/mL (≈ 178 µM) | 16 µg/mL (≈ 44.4 µM) |  |  | 8 µg/mL (≈ 22.2 µM) | 2 µg/mL (≈ 5.55 µM) | 16 µg/mL (≈ 44.4 µM) | 4 µg/mL (≈ 11.1 µM) | Fc1ccc(F)c(OCCCn2c3c(c4cc(F)ccc42)CNCC3)c1 |
| 8 µg/mL (≈ 21.1 µM) | 64 µg/mL (≈ 169 µM) | 4 µg/mL (≈ 10.6 µM) |  |  | 8 µg/mL (≈ 21.1 µM) | 4 µg/mL (≈ 10.6 µM) | 4 µg/mL (≈ 10.6 µM) | 4 µg/mL (≈ 10.6 µM) | Fc1ccc2c(c1)c1c(n2CCCOc2ccc(F)c(F)c2F)CCNC1 |
| 8 µg/mL (≈ 21 µM) | 4 µg/mL (≈ 10.5 µM) | 8 µg/mL (≈ 21 µM) |  |  | 4 µg/mL (≈ 10.5 µM) | 4 µg/mL (≈ 10.5 µM) | 4 µg/mL (≈ 10.5 µM) | 16 µg/mL (≈ 42 µM) | CC(C)(C)c1ccc(OCCCn2c3c(c4cc(F)ccc42)CNCC3)cc1 |
| 8 µg/mL (≈ 24.7 µM) | > 64 µg/mL | 8 µg/mL (≈ 24.7 µM) |  |  | 8 µg/mL (≈ 24.7 µM) | 4 µg/mL (≈ 12.3 µM) | 64 µg/mL (≈ 197 µM) | 16 µg/mL (≈ 49.3 µM) | Fc1ccc2c(c1)c1c(n2CCCOc2ccccc2)CCNC1 |
| 8 µg/mL (≈ 21.1 µM) | 4 µg/mL (≈ 10.6 µM) | 4 µg/mL (≈ 10.6 µM) |  |  | 4 µg/mL (≈ 10.6 µM) | 4 µg/mL (≈ 10.6 µM) | 16 µg/mL (≈ 42.3 µM) | 4 µg/mL (≈ 10.6 µM) | Fc1cc(F)c(OCCCn2c3c(c4cc(F)ccc42)CNCC3)c(F)c1 |

The remaining lines, values behind:

| SMILES | MIC80 (Candida albicans) | MIC80 (Candida parapsilosis) | MIC80 (Cryptococcus neoformans) | MIC80 (Nakaseomyces glabratus) | MIC80 (Aspergillus fumigatus) | MIC80 (Trichophyton rubrum) | MIC80 (Nannizzia gypsea) | MIC80 (Candida tropicalis) | MIC80 (Pichia kudriavzevii) |
| --- | --- | --- | --- | --- | --- | --- | --- | --- | --- |
| CN1CCc2c(c3cc(Cl)ccc3n2CCCOc2ccc(Cl)cc2)C1 | 64 µg/mL (≈ 164 µM) | 16 µg/mL (≈ 41.1 µM) | 8 µg/mL (≈ 20.5 µM) | 16 µg/mL (≈ 41.1 µM) | > 64 µg/mL | > 64 µg/mL | 16 µg/mL (≈ 41.1 µM) |  |  |
| CN1CCc2c(c3cc(Cl)ccc3n2Cc2ccccc2)C1 | 64 µg/mL (≈ 206 µM) | 64 µg/mL (≈ 206 µM) | 32 µg/mL (≈ 103 µM) | 32 µg/mL (≈ 103 µM) | 64 µg/mL (≈ 206 µM) | 16 µg/mL (≈ 51.5 µM) | 16 µg/mL (≈ 51.5 µM) |  |  |
| Fc1ccc(OCCCn2c3c(c4cc(Br)ccc42)CNCC3)cc1 | 4 µg/mL (≈ 9.92 µM) | 4 µg/mL (≈ 9.92 µM) | 4 µg/mL (≈ 9.92 µM) |  |  | 8 µg/mL (≈ 19.8 µM) | 4 µg/mL (≈ 9.92 µM) | 16 µg/mL (≈ 39.7 µM) | 4 µg/mL (≈ 9.92 µM) |
| Fc1ccc2c(c1)c1c(n2CCCOc2cccc(Br)c2)CCNC1 | 2 µg/mL (≈ 4.96 µM) | 4 µg/mL (≈ 9.92 µM) | 4 µg/mL (≈ 9.92 µM) |  |  | 4 µg/mL (≈ 9.92 µM) | 2 µg/mL (≈ 4.96 µM) | 16 µg/mL (≈ 39.7 µM) | 4 µg/mL (≈ 9.92 µM) |
| C#CCn1c2c(c3cc(Cl)ccc31)CN(C)CC2 | > 64 µg/mL | 64 µg/mL (≈ 247 µM) | 32 µg/mL (≈ 124 µM) | 64 µg/mL (≈ 247 µM) | > 64 µg/mL | > 64 µg/mL | 32 µg/mL (≈ 124 µM) |  |  |
| CN1CCc2c(c3cc(Cl)ccc3n2C(=O)Cc2ccccc2)C1 | > 64 µg/mL | > 64 µg/mL | > 64 µg/mL | > 64 µg/mL | > 64 µg/mL | > 64 µg/mL | > 64 µg/mL |  |  |
| CN1CCc2c(c3cc(Cl)ccc3n2C(=O)c2ccccc2Br)C1 | > 64 µg/mL | 64 µg/mL (≈ 159 µM) | > 64 µg/mL | > 64 µg/mL | > 64 µg/mL | > 64 µg/mL | > 64 µg/mL |  |  |
| CN1CCc2c(c3cc(Cl)ccc3n2C(=O)c2cccc(Cl)c2)C1 | > 64 µg/mL | 64 µg/mL (≈ 178 µM) | 32 µg/mL (≈ 89.1 µM) | 32 µg/mL (≈ 89.1 µM) | > 64 µg/mL | > 64 µg/mL | > 64 µg/mL |  |  |
| Fc1ccc(NCCCn2c3c(c4cc(F)ccc42)CNCC3)cc1 | 8 µg/mL (≈ 23.4 µM) | 16 µg/mL (≈ 46.9 µM) | 32 µg/mL (≈ 93.7 µM) |  |  | 32 µg/mL (≈ 93.7 µM) | 16 µg/mL (≈ 46.9 µM) | 64 µg/mL (≈ 187 µM) | 16 µg/mL (≈ 46.9 µM) |
| COc1ccc(OCCCn2c3c(c4cc(F)ccc42)CNCC3)cc1 | 8 µg/mL (≈ 22.6 µM) | > 64 µg/mL | 8 µg/mL (≈ 22.6 µM) |  |  | 8 µg/mL (≈ 22.6 µM) | 4 µg/mL (≈ 11.3 µM) | > 64 µg/mL | 16 µg/mL (≈ 45.1 µM) |
| Fc1ccc2c(c1)c1c(n2CCCOc2cccc(F)c2F)CCNC1 | 32 µg/mL (≈ 88.8 µM) | 4 µg/mL (≈ 11.1 µM) | 32 µg/mL (≈ 88.8 µM) |  |  | 32 µg/mL (≈ 88.8 µM) | 16 µg/mL (≈ 44.4 µM) | 16 µg/mL (≈ 44.4 µM) | 4 µg/mL (≈ 11.1 µM) |
| Fc1ccc2c(c1)c1c(n2CCCOc2c(F)cccc2F)CCNC1 | 4 µg/mL (≈ 11.1 µM) | 64 µg/mL (≈ 178 µM) | 8 µg/mL (≈ 22.2 µM) |  |  | 2 µg/mL (≈ 5.55 µM) | 1 µg/mL (≈ 2.77 µM) | 16 µg/mL (≈ 44.4 µM) | 4 µg/mL (≈ 11.1 µM) |
| Fc1ccc(OCCCCn2c3c(c4cc(F)ccc42)CNCC3)cc1 | 16 µg/mL (≈ 44.9 µM) | 16 µg/mL (≈ 44.9 µM) | 16 µg/mL (≈ 44.9 µM) |  |  | 16 µg/mL (≈ 44.9 µM) | 8 µg/mL (≈ 22.4 µM) | 16 µg/mL (≈ 44.9 µM) | 4 µg/mL (≈ 11.2 µM) |
| Cc1cccc(OCCCn2c3c(c4cc(F)ccc42)CNCC3)c1 | 8 µg/mL (≈ 23.6 µM) | 4 µg/mL (≈ 11.8 µM) | 8 µg/mL (≈ 23.6 µM) |  |  | 4 µg/mL (≈ 11.8 µM) | 4 µg/mL (≈ 11.8 µM) | 16 µg/mL (≈ 47.3 µM) | 16 µg/mL (≈ 47.3 µM) |
| Fc1ccc(OCCCn2c3c(c4cc(Cl)ccc42)CNCC3)cc1 | 4 µg/mL (≈ 11.1 µM) | 4 µg/mL (≈ 11.1 µM) | 4 µg/mL (≈ 11.1 µM) |  |  | 8 µg/mL (≈ 22.3 µM) | 4 µg/mL (≈ 11.1 µM) | 4 µg/mL (≈ 11.1 µM) | 4 µg/mL (≈ 11.1 µM) |
| Cc1ccc(OCCCn2c3c(c4cc(F)ccc42)CNCC3)cc1 | 8 µg/mL (≈ 23.6 µM) | 4 µg/mL (≈ 11.8 µM) | 4 µg/mL (≈ 11.8 µM) |  |  | 2 µg/mL (≈ 5.91 µM) | 4 µg/mL (≈ 11.8 µM) | 16 µg/mL (≈ 47.3 µM) | 4 µg/mL (≈ 11.8 µM) |
| Fc1ccc(OCCCn2c3c(c4cc(F)ccc42)CNCC3)cc1 | 8 µg/mL (≈ 23.4 µM) | 16 µg/mL (≈ 46.7 µM) | 8 µg/mL (≈ 23.4 µM) |  |  | 8 µg/mL (≈ 23.4 µM) | 8 µg/mL (≈ 23.4 µM) | 16 µg/mL (≈ 46.7 µM) | 4 µg/mL (≈ 11.7 µM) |
| Fc1ccc2c(c1)c1c(n2CCCOc2ccccc2Cl)CCNC1 | 32 µg/mL (≈ 89.2 µM) | 64 µg/mL (≈ 178 µM) | 16 µg/mL (≈ 44.6 µM) |  |  | 32 µg/mL (≈ 89.2 µM) | 16 µg/mL (≈ 44.6 µM) | 64 µg/mL (≈ 178 µM) | 64 µg/mL (≈ 178 µM) |
